# Earlier results as cited in patent US20250169531A1 (priority 2023, published 2025).
# Settings: at 25° C.
compound,measurement,value
CN1CCCC1c1cccnc1 (stereo not shown) [Nicotine],pka of the nitrogen of the pyridine ring,3.41
